Experimental data: article PMC12175894 (Science Advances, 2025)
Numbering of substitutions follows the chain as printed. “Also recorded” adds a separate entry of the source.

Assays:
[1] = target: neurotensin NTS2 (Homo sapiens, UniProt O95665); assay: Radioligand displacement, [3H]NT(8-13)
[2] = tested on: mice; assay: Conditioned place preference; assay type: in vivo, mouse; conditions: 10 mg/kg i.p.
[3] = target: T1, 5-HT1AR Q97^2.65A (Homo sapiens, UniProt P08908, Q97A); assay: Radioligand competition, displacement of [3H]WAY100635; assay type: binding; conditions: 5-HT1AR Q97A; HEK 293T membranes; read-out: Ki [nM ± SEM]
T1 sequence (P08908 1-422 Q97A): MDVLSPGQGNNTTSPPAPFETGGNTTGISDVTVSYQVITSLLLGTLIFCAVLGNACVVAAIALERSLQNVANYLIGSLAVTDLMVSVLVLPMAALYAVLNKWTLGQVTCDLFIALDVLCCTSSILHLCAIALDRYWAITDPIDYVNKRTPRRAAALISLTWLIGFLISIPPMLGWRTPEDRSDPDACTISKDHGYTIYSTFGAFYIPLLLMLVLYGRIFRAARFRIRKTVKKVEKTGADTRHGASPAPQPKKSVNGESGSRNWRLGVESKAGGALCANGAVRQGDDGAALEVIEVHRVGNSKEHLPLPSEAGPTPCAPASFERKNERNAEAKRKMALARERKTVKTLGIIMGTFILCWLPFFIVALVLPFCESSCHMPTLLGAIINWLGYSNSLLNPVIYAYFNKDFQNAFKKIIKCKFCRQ

[4] = target: T2, 5-HT1AR (Homo sapiens, UniProt P08908); assay: High-throughput screening with radioligand displacement, single point; assay type: binding; parameters: host or cells: HEK293T, transient; membranes; conditions: compound at 10 nM
T2 sequence (P08908 1-422): T1 sequence (P08908 1-422 Q97A) with A97Q

[5] = target: T3, 5-HT1AR F112^3.28W + M92^2.60F (Homo sapiens, UniProt P08908, F112W/M92F); assay: GloSensor cAMP accumulation in HEK293AΔGi/o; assay type: cell-based; conditions: read-out: Emax [% ± SEM], cAMP accumulation
T3 sequence (P08908 1-422 M92F/F112W): T1 sequence (P08908 1-422 Q97A) with M92F, A97Q, F112W

[6] = target: T2, 5-HT1AR; assay type: cell-based; parameters: host or cells: HEK293T, HEK293A, HEK293AΔGs, HEK293AΔGi/o, HEK293AΔARRB1/B2; conditions: HEK293AΔGi/o, GloSensor
[7] = target: α2BR (Homo sapiens, UniProt P18089); assay: BRET Gαi1 activation
Chain of α2BR (P18089 whole entry): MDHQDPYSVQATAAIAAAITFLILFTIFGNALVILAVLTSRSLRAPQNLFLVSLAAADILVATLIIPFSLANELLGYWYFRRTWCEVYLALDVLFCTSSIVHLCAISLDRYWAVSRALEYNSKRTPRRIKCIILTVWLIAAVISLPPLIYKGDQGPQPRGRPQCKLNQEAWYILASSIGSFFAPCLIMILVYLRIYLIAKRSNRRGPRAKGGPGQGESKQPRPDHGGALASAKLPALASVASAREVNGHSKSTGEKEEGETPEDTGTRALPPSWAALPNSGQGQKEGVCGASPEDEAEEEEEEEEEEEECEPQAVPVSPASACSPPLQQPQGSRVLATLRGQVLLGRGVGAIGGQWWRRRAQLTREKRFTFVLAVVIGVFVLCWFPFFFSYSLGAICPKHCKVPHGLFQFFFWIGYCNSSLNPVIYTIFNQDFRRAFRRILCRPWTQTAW

[8] = target: muscarinic M3 (Homo sapiens, UniProt P20309); assay: Radioligand displacement, [3H]NMS
Chain of muscarinic M3 (P20309 whole entry): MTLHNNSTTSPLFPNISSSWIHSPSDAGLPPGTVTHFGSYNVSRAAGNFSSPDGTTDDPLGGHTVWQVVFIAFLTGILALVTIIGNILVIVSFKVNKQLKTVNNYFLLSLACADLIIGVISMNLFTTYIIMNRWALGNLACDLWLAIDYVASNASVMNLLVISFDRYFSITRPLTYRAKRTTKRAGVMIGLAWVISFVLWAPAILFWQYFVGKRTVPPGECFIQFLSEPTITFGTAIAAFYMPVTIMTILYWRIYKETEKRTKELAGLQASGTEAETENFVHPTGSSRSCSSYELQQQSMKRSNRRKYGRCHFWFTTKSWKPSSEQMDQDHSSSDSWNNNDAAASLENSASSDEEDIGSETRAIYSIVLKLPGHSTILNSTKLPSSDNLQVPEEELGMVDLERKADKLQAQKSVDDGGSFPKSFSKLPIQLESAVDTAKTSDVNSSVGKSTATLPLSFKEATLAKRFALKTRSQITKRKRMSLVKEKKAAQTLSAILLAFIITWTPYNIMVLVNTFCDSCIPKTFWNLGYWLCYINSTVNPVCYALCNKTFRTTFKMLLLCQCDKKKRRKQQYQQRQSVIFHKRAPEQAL

[9] = tested on: mice; assay: Elevated plus maze; assay type: in vivo, mouse
[10] = target: 5-HT1AR + Gαi1 (Homo sapiens, UniProt P08908); assay: cell-based
Chain of 5-HT1AR + Gαi1 (P08908 whole entry): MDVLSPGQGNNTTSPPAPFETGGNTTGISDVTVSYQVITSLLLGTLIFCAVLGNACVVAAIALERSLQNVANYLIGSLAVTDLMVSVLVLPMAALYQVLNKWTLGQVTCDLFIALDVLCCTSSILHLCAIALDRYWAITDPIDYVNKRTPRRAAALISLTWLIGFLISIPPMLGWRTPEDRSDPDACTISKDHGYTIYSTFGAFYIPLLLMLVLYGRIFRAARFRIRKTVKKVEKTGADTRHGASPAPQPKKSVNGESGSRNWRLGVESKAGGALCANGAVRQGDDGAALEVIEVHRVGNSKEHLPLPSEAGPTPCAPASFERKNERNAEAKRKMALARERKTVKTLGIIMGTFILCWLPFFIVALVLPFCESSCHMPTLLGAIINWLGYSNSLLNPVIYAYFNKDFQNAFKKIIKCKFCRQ
Chain of 5-HT1AR + Gαi1 (P63096 2-354 partner limits assumed): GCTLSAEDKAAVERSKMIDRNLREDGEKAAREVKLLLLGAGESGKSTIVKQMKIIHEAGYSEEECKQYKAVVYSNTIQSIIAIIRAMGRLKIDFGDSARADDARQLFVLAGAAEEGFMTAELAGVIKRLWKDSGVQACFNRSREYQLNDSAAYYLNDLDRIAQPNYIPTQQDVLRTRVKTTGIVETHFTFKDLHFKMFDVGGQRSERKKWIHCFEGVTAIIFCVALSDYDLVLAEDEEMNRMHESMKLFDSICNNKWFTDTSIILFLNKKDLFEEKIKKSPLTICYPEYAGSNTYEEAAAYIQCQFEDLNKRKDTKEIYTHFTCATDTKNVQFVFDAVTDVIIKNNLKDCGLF

[11] = target: T4, 5-HT1AR F112^3.28W (Homo sapiens, UniProt P08908, F112W); assay: GloSensor cAMP accumulation in HEK293AΔGi/o; assay type: cell-based; conditions: read-out: Emax [% ± SEM], cAMP accumulation
T4 sequence (P08908 1-422 F112W): T1 sequence (P08908 1-422 Q97A) with A97Q, F112W

[12] = In vivo pharmacokinetic studies; conditions: mouse, CSF, ip; male C57BL/6 mice, 10 mg/kg i.p.
[13] = target: adrenergic α2A (Homo sapiens, UniProt P08913); assay: Radioligand displacement, [3H]RX821002
Chain of adrenergic α2A (P08913 whole entry): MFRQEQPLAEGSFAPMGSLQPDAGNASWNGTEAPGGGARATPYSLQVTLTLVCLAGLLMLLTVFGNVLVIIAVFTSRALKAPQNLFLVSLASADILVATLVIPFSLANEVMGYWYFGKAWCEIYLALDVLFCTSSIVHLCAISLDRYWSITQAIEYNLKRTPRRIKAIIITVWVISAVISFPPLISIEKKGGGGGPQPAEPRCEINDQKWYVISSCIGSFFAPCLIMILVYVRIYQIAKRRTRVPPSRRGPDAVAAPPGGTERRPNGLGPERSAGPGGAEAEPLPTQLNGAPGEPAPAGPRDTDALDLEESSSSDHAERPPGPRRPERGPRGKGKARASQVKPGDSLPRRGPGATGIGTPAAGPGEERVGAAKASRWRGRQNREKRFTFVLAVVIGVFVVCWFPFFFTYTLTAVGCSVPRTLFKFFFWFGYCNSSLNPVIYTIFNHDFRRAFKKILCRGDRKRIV

[14] = target: T5, 5-HT1AR wildtype (Homo sapiens, UniProt P08908); assay: GloSensor cAMP accumulation in HEK293AΔGi/o; assay type: cell-based; conditions: read-out: Emax [% ± SEM], cAMP accumulation
T5 construct: host or cells: HEK293T, HEK293A, HEK293AΔGs, HEK293AΔGi/o, HEK293AΔARRB1/B2
T5 sequence (P08908 1-422): T1 sequence (P08908 1-422 Q97A) with A97Q

Chain of neurotensin NTS2 (O95665 whole entry): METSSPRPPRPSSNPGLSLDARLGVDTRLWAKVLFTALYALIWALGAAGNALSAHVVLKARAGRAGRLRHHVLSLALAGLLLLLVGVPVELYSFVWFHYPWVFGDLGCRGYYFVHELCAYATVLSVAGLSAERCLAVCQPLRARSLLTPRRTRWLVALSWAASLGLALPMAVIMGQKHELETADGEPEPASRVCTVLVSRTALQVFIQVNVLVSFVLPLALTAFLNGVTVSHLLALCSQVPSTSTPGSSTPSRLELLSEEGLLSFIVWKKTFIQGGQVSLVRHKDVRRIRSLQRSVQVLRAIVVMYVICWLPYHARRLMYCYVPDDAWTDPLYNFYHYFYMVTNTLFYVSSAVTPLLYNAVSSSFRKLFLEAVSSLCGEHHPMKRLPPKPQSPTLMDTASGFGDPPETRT

## COc1ccccc1OCCNCCCOc1ccc2c(c1)NC(=O)CO2 [ST171]
[1]; Ki [nM ± SD]
  Ki: > 50000 nM
[1]; pKi
  Ki: > 50100 nM
[2]
  conditioned place preference (rewarding properties): rewarding; also recorded: induces CPP
[3]
  Ki: 63 nM
[4]
  displacement of the radiolabeled ligand [3H]WAY100,635: more than 80%
[5]
  Emax: < 5%
[6]
  IC50: 3.9 ± 0.8 nM
[7]
  intrinsic activity: devoid of intrinsic activity
[8]; Ki [nM ± SD]
  Ki: 49000 ± 28000 nM
[8]; pKi
  Ki: 41500 nM
[9]; 1 or 5 mg/kg, 30 min before test
  time in center and open arms, plus maze: spent more time in the center
[9]; analgesic dose (10 mg/kg)
  anxiolytic effect, plus maze: anxiolytic effects of the drug disappeared
[10]
  EC50: 2.5 ± 0.7 nM
[11]
  Emax: < 5%
[12]
  Cmax: ~40 nM
[13]; Ki [nM ± SD]
  Ki: 260 nM
[13]; pKi
  Ki: 204 nM

## Cc1ccc(CNCC2(F)CCN(C(=O)c3ccc(F)c(Cl)c3)CC2)nc1 [befiradol, reference compound]
[14]
  Emax: 74 ± 3%
